Source: paper PMC5145767 (Neuron, 2016)
Read-outs that look alike come from different tables or passages of the source.

What was measured:
[1] = test system: DKaiR1D ligand-binding domain; parameters: species or system Drosophila melanogaster; conditions: ligand 1 mM, trypsin 1:20, 60 min
DGluR1A [2] = target: T1, DGluR1A (Drosophila melanogaster, UniProt Q03445); experiment: DGluR1A coexpressed with Apis Stg1 in Xenopus oocytes; type: cell-based; conditions: for activation, % of the response to glutamate recorded in the same cell: agonists 3 mM
T1 sequence (Q03445 28-991): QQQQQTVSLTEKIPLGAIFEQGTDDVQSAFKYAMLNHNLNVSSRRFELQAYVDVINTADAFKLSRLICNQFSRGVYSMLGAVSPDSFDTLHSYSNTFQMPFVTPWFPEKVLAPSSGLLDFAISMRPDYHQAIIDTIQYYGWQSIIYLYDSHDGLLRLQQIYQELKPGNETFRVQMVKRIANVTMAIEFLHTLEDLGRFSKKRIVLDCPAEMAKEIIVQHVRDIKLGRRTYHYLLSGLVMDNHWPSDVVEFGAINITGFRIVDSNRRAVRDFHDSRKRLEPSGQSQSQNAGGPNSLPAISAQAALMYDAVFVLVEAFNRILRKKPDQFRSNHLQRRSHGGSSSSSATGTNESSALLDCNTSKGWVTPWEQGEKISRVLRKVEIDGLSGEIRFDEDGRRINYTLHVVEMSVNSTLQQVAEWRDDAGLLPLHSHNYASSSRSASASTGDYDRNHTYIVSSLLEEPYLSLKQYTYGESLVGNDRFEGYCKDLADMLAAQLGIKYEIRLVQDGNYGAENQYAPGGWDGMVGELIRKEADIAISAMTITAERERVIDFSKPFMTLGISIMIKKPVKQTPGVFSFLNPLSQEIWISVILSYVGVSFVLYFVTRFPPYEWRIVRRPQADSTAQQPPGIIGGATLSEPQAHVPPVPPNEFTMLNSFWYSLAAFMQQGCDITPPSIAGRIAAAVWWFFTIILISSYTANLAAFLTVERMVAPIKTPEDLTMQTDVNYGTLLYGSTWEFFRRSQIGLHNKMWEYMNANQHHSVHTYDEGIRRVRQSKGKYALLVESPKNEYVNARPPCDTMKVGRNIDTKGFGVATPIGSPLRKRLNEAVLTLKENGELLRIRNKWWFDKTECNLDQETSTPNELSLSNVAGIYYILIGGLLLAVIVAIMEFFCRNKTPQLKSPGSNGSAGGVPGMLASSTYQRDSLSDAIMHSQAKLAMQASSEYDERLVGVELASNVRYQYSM

DGluR1A [3] = target: T1, DGluR1A; conditions: 1992, cited from earlier work
[4] = test system: DGluR1A ligand-binding domain; parameters: species or system Drosophila melanogaster; conditions: ligand 1 mM, trypsin 1:20
DKaiR1D [5] = target: T2, DKaiR1D (Drosophila melanogaster, UniProt Q9VDH5); type: cell-based; conditions: for activation of DKaiR1D: Xenopus oocytes, ligands of b17 all applied at 10 mM
DKaiR1D [6] = target: T2, DKaiR1D; type: cell-based
GluK2 = conditions: ref Plested and Mayer, 2007; cited from earlier work
DKaiR1D Q604R = DKaiR1D Q604R mutant responses in Xenopus oocytes; type: cell-based, Drosophila melanogaster; conditions: 3 μM toxin, 3 mM glutamate, -60 mV
DGluR1A Y792T [7] = target: DGluR1A Y792T (Drosophila melanogaster, UniProt Q03445, Y792T); experiment: Receptor activity of DGluR1A Y792T mutant; type: cell-based; conditions: Figure S8C
DGluR1A Y792T (Drosophila melanogaster, UniProt Q03445, Y792T), sequence (Q03445 28-991 Y792T): as the sequence (Q03445 28-991) above, with Y765T counted along it

DGluR1A Y792T [8] = experiment: Proteolysis protection assay of DGluR1A Y792T mutant; type: binding, Drosophila melanogaster; conditions: Figure S8B
[9] = 10 mM glutamate, decay fit by sum of two exponentials
[10] = NaCl, NaMeSO3 exchange experiment

C=C(C)[C@H]1CN[C@H](C(=O)O)[C@H]1CC(=O)O [kainate]
protection from digestion by trypsin [1]: prevented digestion by trypsin
EC50 (DGluR1A [2]): 125 ± 4 µM
EC50 (DGluR1A [3]; read-out: EC50 for activation, prior studies ref Ultsch et al.): 75 µM
protection from digestion by trypsin [4]: protective
activation of DKaiR1D (DKaiR1D [5]; -60 mV): produced activation

N[C@@H](CCC(=O)O)C(=O)O [glutamate]
deactivation rate constant (DKaiR1D [6]; 10 mM glutamate applied for 1 ms): 2523 ± 218 s⁻¹
10–90% rise time (DKaiR1D [6]; 10 mM glutamate applied for 1 ms, outside-out patch): 217 ± 6 μs
desensitization kfast (DKaiR1D [6]; [9]): 1317 ± 105 s⁻¹
desensitization kslow (DKaiR1D [6]; [9]): 107 ± 22 s⁻¹
onset of desensitization kfast (DKaiR1D [6]; CsCl): 1884 ± 99 s⁻¹
onset of desensitization kslow (DKaiR1D [6]; CsCl): 192 ± 28 s⁻¹
onset of desensitization kfast (DKaiR1D [6]; NaCl, CsCl exchange experiment): 1504 ± 90 s⁻¹
onset of desensitization kslow (DKaiR1D [6]; NaCl, CsCl exchange experiment): 165 ± 27 s⁻¹
onset of desensitization kfast (DKaiR1D [6]; [10]): 1970 ± 88 s⁻¹
onset of desensitization kslow (DKaiR1D [6]; [10]): 190 ± 31 s⁻¹
onset of desensitization kfast (DKaiR1D [6]; NaMeSO3): 1985 ± 68 s⁻¹
onset of desensitization kslow (DKaiR1D [6]; NaMeSO3): 236 ± 39 s⁻¹
recovery from desensitization kslow (DKaiR1D [6]; twin pulse protocol, sum of two exponentials): 9.9 s⁻¹
protection from digestion by trypsin [1]: prevented digestion by trypsin
increase of rate of onset of desensitization on exchange of NaMeSO3 for NaCl (GluK2): 7 fold
EC50 (DGluR1A [2]): 136 ± 8 µM
protection from digestion by trypsin [4]: protective
EC50 (DKaiR1D [5]): 10700 ± 500 µM
activation of DKaiR1D (DKaiR1D [5]; -60 mV): produced activation

NC(CCCP(=O)(O)O)C(=O)O (centres unmarked) [AP5]
protection from digestion by trypsin [1]: protective
protection from digestion by trypsin [4]: but not AMPA, NMDA, aspartate or AP5 were protective
activation of DKaiR1D (DKaiR1D [5]; -60 mV): nor AP5 (Figure S5) produced DKaiR1D activation

philanthotoxin-433
block of Q604R mutant responses to glutamate (DKaiR1D Q604R): did not block
inhibition of DGluR1A (DGluR1A [3]; ref Ultsch et al.): inhibition of DGluR1A by philanthotoxin
block of wild type responses to glutamate by extracellular toxin (DKaiR1D [5]; 3 μM toxin, 3 mM glutamate, -60 mV, several minutes for full recovery): blocked

CN[C@H](CC(=O)O)C(=O)O [NMDA]
protection from digestion by trypsin [1]: protective
activation of DGluR1A (DGluR1A [2]; agonist 3 mM, -60 mV, Apis Stg1): no activation
protection from digestion by trypsin [4]: but not AMPA, NMDA, aspartate or AP5 were protective
IC50 (DKaiR1D [5]): 900 µM
activation of DKaiR1D (DKaiR1D [5]; -60 mV): but not AMPA, aspartate or NMDA produced activation
block of responses to 10 mM glutamate (DKaiR1D [5]; antagonist 10 mM, -60 mV): 79.2 ± 2.2%

N#Cc1cc2[nH]c(=O)c(=O)[nH]c2cc1[N+](=O)[O-] [CNQX]
protection from digestion by trypsin [1]: weak protection
protection from digestion by trypsin [4]: protective
block of responses to 10 mM glutamate (DKaiR1D [5]; antagonist 10 mM, -60 mV): 34.3 ± 3.0%

N[C@@H](Cn1oc(=O)[nH]c1=O)C(=O)O [quisqualate, quisqualic acid]
protection from digestion by trypsin [1]: prevented digestion by trypsin
activation, % of the response to glutamate recorded in the same cell (DGluR1A [2]; -60 mV, Apis Stg1): 41 ± 3%
protection from digestion by trypsin [4]: protective
receptor activation (DGluR1A Y792T [7]): produces full receptor activation
amplitude of responses relative to those to glutamate (DKaiR1D [5]): 0.78 ± 0.03
activation of DKaiR1D (DKaiR1D [5]; -60 mV): produced activation
binding in proteolysis protection assay (DGluR1A Y792T [8]): binds strongly

N[C@H](CCCP(=O)(O)O)C(=O)O [D-AP5, 2(R)-amino-5-phosphonopentanoic acid]
block of responses to 1 mM glutamate (DKaiR1D [5]): 22.7 ± 0.8%
block of responses to 10 mM glutamate (DKaiR1D [5]): 16.6 ± 1.0%

N[C@@H](CC(=O)O)C(=O)O [aspartate]
protection from digestion by trypsin [1]: to a lesser extent aspartate were also protective
activation, % of the response to glutamate recorded in the same cell (DGluR1A [2]; -60 mV, Apis Stg1): 28 ± 8%
activation of DKaiR1D (DKaiR1D [5]; -60 mV): but not AMPA, aspartate or NMDA produced activation

Cc1o[nH]c(=O)c1CC(N)C(=O)O (centres unmarked) [AMPA]
protection from digestion by trypsin [1]: inactive
activation, % of the response to glutamate recorded in the same cell (DGluR1A [2]; -60 mV, Apis Stg1): 40 ± 4%
protection from digestion by trypsin [4]: but not AMPA, NMDA, aspartate or AP5 were protective
receptor activation (DGluR1A Y792T [7]): but not AMPA, binds strongly and produces full receptor activation
activation of DKaiR1D (DKaiR1D [5]; -60 mV): but not AMPA, aspartate or NMDA produced activation
binding in proteolysis protection assay (DGluR1A Y792T [8]): but not AMPA, binds strongly

N[C@@H](CCCP(=O)(O)O)C(=O)O [L-AP5]
block of responses to 1 mM glutamate (DKaiR1D [5]; antagonist 10 mM, -60 mV): 35.7 ± 1.4%
block of responses to 10 mM glutamate (DKaiR1D [5]; antagonist 10 mM, -60 mV): 11.7 ± 1.2%
